According to patent US6586630B1, “Ethylamine derivatives” (Chugai Seiyaku Kabushiki Kaisha, priority 1998, dated 2003):

Legend:
Motilin receptor = biological target: T1, Motilin receptor (Oryctolagus cuniculus, UniProt G1T803); test: Motilin receptor binding test (125I motilin, rabbit duodenum protein sample); conditions: 125I motilin 25 pM, concentration reducing specific binding by 50%
T1 construct: had the mucous membrane separated and homogenized in 50 mM Tris buffer to prepare a protein sample; from tissue; host or cells: rabbit duodenum with the mucous membrane separated, homogenate
T1 sequence (G1T803 1-400): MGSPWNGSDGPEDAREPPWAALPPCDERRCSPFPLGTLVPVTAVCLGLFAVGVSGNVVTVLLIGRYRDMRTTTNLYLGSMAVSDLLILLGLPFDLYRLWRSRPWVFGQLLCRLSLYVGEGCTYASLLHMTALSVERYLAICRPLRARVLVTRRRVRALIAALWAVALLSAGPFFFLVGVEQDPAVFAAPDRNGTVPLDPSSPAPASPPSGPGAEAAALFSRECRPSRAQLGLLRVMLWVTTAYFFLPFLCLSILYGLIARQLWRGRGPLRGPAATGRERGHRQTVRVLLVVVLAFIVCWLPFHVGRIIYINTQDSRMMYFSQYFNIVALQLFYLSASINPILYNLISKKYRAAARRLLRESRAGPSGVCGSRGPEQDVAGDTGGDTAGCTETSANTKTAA
Protocol: Motilin Receptor Binding Test
A motilin receptor binding test was conducted in the following manner [Vantrappen et al., Regul. Peptides, 15, 143 (1986)]. The duodenum was extracted from a slaughtered rabbit, had the mucous membrane separated and homogenized in 50 mM Tris buffer to prepare a protein sample. The protein sample was incubated together with ^125I motilin 25 pM and thereafter the radioactivity bound to the protein was measured. Specific binding was defined as the difference between the radioactivity in the case of no adding and that in the case of adding a great excess amount of motilin (10^−7 M). The activity of the compound was expressed by IC50 (in nM), as the concentration sufficient to reduce the specific binding by 50%.

[1] = tested on: motilin-induced contraction of longitudinal muscle in the duodenum; test: Contraction suppressing test: motilin-induced contraction of a specimen of longitudinal muscle in the duodenum extracted from a rabbit; type: cell-based; conditions: rabbit duodenum longitudinal muscle in organ bath, Krebs solution 28° C.; effect on dose-dependent contraction by motilin
Protocol: Action on the Contraction of a Specimen of Longitudinal Muscle in the Duodenum Extracted from a Rabbit
The action on the motilin-induced contraction of a specimen of longitudinal muscle in the duodenum extracted from a rabbit was investigated by the following method. A duodenum specimen extracted from a slaughtered rabbit (5×15 mm) was suspended in an organ bath (10 ml) such that the longitudinal muscle would run vertically; the bath was filled with a Krebs solution kept at 28° C. A mixed gas (95% O2 and 5% CO2) was continuously bubbled into the Krebs solution and the contraction of the duodenum specimen was recorded isotonically (with a 1-g load) via an isotonic transducer (ME-3407, ME Commercial, Tokyo, Japan). The degree of contraction was expressed in relative values, with the contraction by acetylcholine at a dose of 10^−4 M being taken as 100%. The activity of the compound was calculated as pA2 value indicating its effect on the dose-dependent muscle contraction by the motilin put into the organ bath.

IC50 (Motilin receptor): 3.5 nM
Structure (SMILES): CC(C)[C@@H](C(=O)NC(Cc1ccc(F)c(C(C)(C)C)c1)C(N)=O)N(C)C(=O)[C@@H](N)Cc1ccccc1 (single isomer, unassigned) [7 (A), Phe-N-Me-Val-Phe(3-tBu-4-F)—NH2]
Contraction suppressing test, pA2 [1]: 7.58
